Source: ChEMBL document CHEMBL3871294, “Synthesis of novel substituted pyrimidine derivatives bearing a sulfamide group and their in vitro cancer growth inhibition activity” (Bioorg Med Chem Lett, 2017)

Columns and labels:
[1] = Antiproliferative activity against human M21 cells after 48 hrs by SRB assay; assay type: functional; details: M21, 48 h
[2] = Antiproliferative activity against estrogen dependent human MCF7 cells after 48 hrs by SRB assay; assay type: functional; details: MCF7, 48 h
[3] = Antiproliferative activity against human HT-29 cells after 48 hrs by SRB assay; assay type: functional; details: HT-29, 48 h
[4] = Antiproliferative activity against human T47D cells; assay type: functional
[5] = Antiproliferative activity against human SKBR3 cells; assay type: functional; details: SK-BR-3
[6] = Antiproliferative activity against human MDA-MB-468 cells; assay type: functional
[7] = Antiproliferative activity against neonatal-NHDF cells; assay type: cell-based; details: human
[8] = Antiproliferative activity against human MDA-MB-231 cells; assay type: functional
[9] = Antiproliferative activity against human HaCaT cells; assay type: cell-based

## NS(=O)(=O)NCC1CCN(c2cc(-c3ccc(C(F)(F)F)cc3)ncn2)CC1
[1]
  GI50: 43.1 µM
[2]
  GI50: 22.5 µM
[3]
  GI50: 29.1 µM

## NS(=O)(=O)NCC1CCN(c2cc(-c3ccccc3Cl)ncn2)CC1
[4]
  GI50: 65.5 µM
[5]
  GI50: > 100 µM
[6]
  GI50: > 100 µM
[7]
  GI50: 93 µM
[1]
  GI50: > 100 µM
[2]
  GI50: 62.4 µM
[3]
  GI50: > 100 µM
[8]
  GI50: > 100 µM
[9]
  GI50: > 100 µM

## CCOC(=O)c1ccc(-c2cc(N3CCC(CCNS(N)(=O)=O)CC3)ncn2)cc1
[1]
  GI50: 9 µM
[2]
  GI50: 6.2 µM
[3]
  GI50: 6.8 µM

## NS(=O)(=O)NCCC1CCN(c2cc(-c3ccc(Cl)cc3)ncn2)CC1
[1]
  GI50: 45.2 µM
[2]
  GI50: 19.7 µM
[3]
  GI50: 30.5 µM

## NS(=O)(=O)NCC1CCN(c2cc(-c3ccccc3F)ncn2)CC1
[1]
  GI50: > 100 µM
[2]
  GI50: 48.5 µM
[3]
  GI50: 80.4 µM

## COC(=O)c1ccc(-c2cc(N3CCC(CCNS(N)(=O)=O)CC3)ncn2)cc1
[1]
  GI50: 19.6 µM
[2]
  GI50: 17.6 µM
[3]
  GI50: 19.6 µM

## Cc1ccc(-c2cc(N3CCC(CCNS(N)(=O)=O)CC3)ncn2)cc1
[1]
  GI50: 57.6 µM
[2]
  GI50: 47.5 µM
[3]
  GI50: 52.3 µM

## COc1ccc(-c2cc(N3CCC(CCNS(N)(=O)=O)CC3)ncn2)cc1
[1]
  GI50: 69.8 µM
[2]
  GI50: 56.6 µM
[3]
  GI50: 72.3 µM

## NS(=O)(=O)NCC1CCN(c2cc(-c3cccc4ccccc34)ncn2)CC1
[1]
  GI50: 6.6 µM
[2]
  GI50: 12.1 µM
[3]
  GI50: 6.8 µM

## COc1ccccc1-c1cc(N2CCC(CCNS(N)(=O)=O)CC2)ncn1
[1]
  GI50: 96.9 µM
[2]
  GI50: 69.8 µM
[3]
  GI50: 74.3 µM

## CCCCc1ccc(-c2cc(N3CCC(CCNS(N)(=O)=O)CC3)ncn2)cc1
[1]
  GI50: 15.1 µM
[2]
  GI50: 11.3 µM
[3]
  GI50: 13.3 µM

## NS(=O)(=O)NCC1CCN(c2cc(-c3ccccc3)ncn2)CC1
[4]
  GI50: 24.1 µM
[5]
  GI50: > 100 µM
[6]
  GI50: > 100 µM
[7]
  GI50: > 100 µM
[1]
  GI50: > 100 µM
[2]
  GI50: 34.3 µM
[3]
  GI50: > 100 µM
[8]
  GI50: > 100 µM
[9]
  GI50: > 100 µM

## CC(C)(C)c1ccc(-c2cc(N3CCC(CCNS(N)(=O)=O)CC3)ncn2)cc1
[1]
  GI50: 18.4 µM
[2]
  GI50: 13.1 µM
[3]
  GI50: 10.3 µM

## NS(=O)(=O)NCCC1CCN(c2cc(-c3cccc(Cl)c3)ncn2)CC1
[1]
  GI50: 50.7 µM
[2]
  GI50: 31.2 µM
[3]
  GI50: 31.6 µM

## CCOC(=O)c1ccc(-c2cc(N3CCC(CNS(N)(=O)=O)CC3)ncn2)cc1
[1]
  GI50: 5 µM
[2]
  GI50: 4.1 µM
[3]
  GI50: 5.7 µM

## CC(C)(C)c1ccc(-c2cc(N3CCC(CNS(N)(=O)=O)CC3)ncn2)cc1
[1]
  GI50: 19.3 µM
[2]
  GI50: 19.7 µM
[3]
  GI50: 8.9 µM

## NS(=O)(=O)NCC1CCN(c2cc(-c3ccc(Cl)cc3)ncn2)CC1
[1]
  GI50: 50.3 µM
[2]
  GI50: 25.5 µM
[3]
  GI50: 37.7 µM

## COC(=O)c1ccc(-c2cc(N3CCC(CNS(N)(=O)=O)CC3)ncn2)cc1
[1]
  GI50: 14.1 µM
[2]
  GI50: 17.7 µM
[3]
  GI50: 22.9 µM

## COc1ccc(-c2cc(N3CCC(CNS(N)(=O)=O)CC3)ncn2)cc1
[4]
  GI50: 24.5 µM
[5]
  GI50: > 100 µM
[6]
  GI50: > 100 µM
[7]
  GI50: 77 µM
[1]
  GI50: > 100 µM
[2]
  GI50: 35.3 µM
[3]
  GI50: > 100 µM
[8]
  GI50: > 100 µM
[9]
  GI50: > 100 µM

## NS(=O)(=O)NCCC1CCN(c2cc(-c3ccccc3F)ncn2)CC1
[1]
  GI50: 81.8 µM
[2]
  GI50: > 100 µM
[3]
  GI50: 51.8 µM

## NS(=O)(=O)NCCC1CCN(c2cc(-c3cccc4ccccc34)ncn2)CC1
[1]
  GI50: 1.8 µM
[2]
  GI50: 5.9 µM
[3]
  GI50: 3.5 µM

## COc1ccccc1-c1cc(N2CCC(CNS(N)(=O)=O)CC2)ncn1
[4]
  GI50: > 100 µM
[5]
  GI50: > 100 µM
[6]
  GI50: > 100 µM
[7]
  GI50: > 100 µM
[1]
  GI50: > 100 µM
[2]
  GI50: 10.1 µM
[3]
  GI50: > 100 µM
[8]
  GI50: > 100 µM
[9]
  GI50: > 100 µM

## NS(=O)(=O)NCCC1CCN(c2cc(-c3ccccc3)ncn2)CC1
[1]
  GI50: > 100 µM
[2]
  GI50: 53.2 µM
[3]
  GI50: 66.5 µM

## NS(=O)(=O)NCC1CCN(c2cc(-c3cccc(Cl)c3)ncn2)CC1
[1]
  GI50: 62.5 µM
[2]
  GI50: 47.1 µM
[3]
  GI50: 47.5 µM

## Cc1ccc(-c2cc(N3CCC(CNS(N)(=O)=O)CC3)ncn2)cc1
[1]
  GI50: 71 µM
[2]
  GI50: 30.6 µM
[3]
  GI50: 33.9 µM

## CCCCc1ccc(-c2cc(N3CCC(CNS(N)(=O)=O)CC3)ncn2)cc1
[1]
  GI50: 47.2 µM
[2]
  GI50: 21.8 µM
[3]
  GI50: 15.2 µM

## NS(=O)(=O)NCCC1CCN(c2cc(-c3ccc(C(F)(F)F)cc3)ncn2)CC1
[1]
  GI50: 34.8 µM
[2]
  GI50: 15.2 µM
[3]
  GI50: 22.6 µM

## NS(=O)(=O)NCCC1CCN(c2cc(-c3ccccc3Cl)ncn2)CC1
[1]
  GI50: 93.9 µM
[2]
  GI50: 44.8 µM
[3]
  GI50: 52.9 µM
